Target: T1, recombinant autotaxin (Homo sapiens, UniProt Q13822)
T1 construct: made in house; host or cells: Hi5 insect cells (baculovirus)
Experiment: Autotaxin test (enzyme test), Amplex Red fluorescence with LPC substrate
Format: biochemical
Details: autotaxin inhibition (enzyme test); for remaining activity at 10 µM: 10 μM compound, read-out: % Control at 10 μM
Experimental: Autotaxin Inhibition (Enzyme Test)
Autotaxin Test (Enzyme Test)
The autotaxin activity is measured indirectly using Amplex Red reagent. Amplex Red is measured here as fluorogenic indicator for the H2O2 formed. In detail, autotaxin converts the substrate lysophosphatidylcholine (LPC) into phosphocholine and lysophosphatidylic acid (LPA). After this reaction, the phosphocholine is reacted with alkaline phosphatase to give inorganic phosphate and choline. In the next step, choline is oxidised by choline oxidase to give betaine, with formation of H2O2. H2O2 reacts with Amplex Red reagent in the presence of peroxidase (horseradish peroxidase) in a 1:1 stoichiometry and forms the highly fluorescent resorufin. The fluorescence is measured in a reaction-dependent kinetic mode in order that fluorescent signals from possible other fluorescent substances which are not involved in the reaction can be corrected out.
3 μl of a standard solution or of the test substances (substances with the name A(n)) in individual concentrations dissolved in 20 mM Hepes pH 7.2 with a maximum of 11% of DMSO are pre-incubated together with 20 μl (19 ng) of highly purified recombinant autotaxin in test buffer in a black microtitre plate provided with 384 wells at 22° C. for 30 min. The reaction is then initiated by addition of 10 μl of L-α-lysophosphatidylcholine (LPC), where the final concentration of LPC is 75 μM. The mixture is incubated at 37° C. for 90 min. After the incubation, Amplex Red reagent, peroxidase (horseradish peroxidase) and choline oxidase is added, and the fluorescence is immediately measured at 612 nm with excitation of 485 nm in a “Tecan Ultra multimode” reader. The activity of autotaxin is calculated indirectly via detection of the H2O2 formed.
• Microtitre plate: PS microplate, 384 wells, small volume, black Corning, Cat#3677 • Protein: recombinant autotaxin (Baculovirale Hi5 Expression) • Substrate: L-α-lysophosphatidylcholine (chicken egg)); Avanti Polar Lipids #830071 P • Standard: C14 LPA, Avanti Polar Lipids, Cat#857120P • Detection reagent: Amplex Red reagent; Invitrogen #A12222; 5 mg dissolved in 1.923 ml of DMSO peroxidase type VI-A (horseradish) from Sigma #P6782; 5 mg dissolved in 7.45 ml of test buffer, choline oxidase; Sigma # C5896; 50 U dissolved in 2.47 ml of test buffer • Detection reagent mix: 1:50 dilution of detection reagent in test buffer • Test buffer: 10 mM Tris HCl, Merck, Cat #1.08219, pH 8, 1 mM; CaCl2×2 H2O, Merck #1.02382

| remaining activity at 10 µM [%] | IC50 [nM] | SMILES |
| --- | --- | --- |
| – | > 1000 | O=C1Nc2ccc(-c3ccc(Cl)cc3)cc2C(=O)N2CCN(C(=O)[C@@H](O)c3ccccc3)C[C@H]12 [Compound A1, (R)-7-(4-Chlorophenyl)-2-((S)-2-hydroxy-2-phenylacetyl)-1,3,4,11a-tetrahydro-2H,10H-2,4a,10-triazadibenzo[a,d]cycloheptene-5,11-dione] |
| 86 | – | O=C1Nc2ccc(-c3cccs3)cc2C(=O)N2CCN(C(=O)[C@@H](O)c3ccccc3)C[C@H]12 [Compound A3, (R)-2-((S)-2-Hydroxy-2-phenylacetyl)-7-thiophen-2-yl-1,3,4,11a-tetrahydro-2H,10H-2,4a,10-triaza-dibenzo[a,d]cycloheptene-5,11-dione] |
| 75 | – | NC(=O)C(=O)N1CCN2C(=O)c3cc(-c4ccco4)ccc3NC(=O)[C@H]2C1 [Compound A4, 2-((R)-7-Furan-2-yl-5,11-dioxo-3,4,5,10,11,11a-hexahydro-1H-2,4a,10-triazadibenzo[a,d]cyclo-hepten-2-yl)-2-oxoacetamide] |
| – | > 1000 | O=C1Nc2ccc(-c3ccc(Cl)cc3)cc2C(=O)N2CCN(C(=O)[C@@H]3CSCN3)C[C@H]12 [Compound A5, (R)-7-(4-Chlorophenyl)-2-((R)-thiazolidine-4-carbonyl)-1,3,4,11a-tetrahydro-2H,10H-2,4a,10-triazadibenzo[a,d]cycloheptene-5,11-dione] |
| 73 | – | O=C1Nc2ccc(-c3ccco3)cc2C(=O)N2CCN(C(=O)CO)C[C@H]12 [Compound A6, (R)-7-Furan-2-yl-2-(2-hydroxyacetyl)-1,3,4,11a-tetrahydro-2H,10H-2,4a,10-triazadibenzo[a,d]-cycloheptene-5,11-dione] |
| – | > 1000 | CC(C)(C)CC(=O)N1CCN2C(=O)c3cc(-c4ccccc4F)ccc3NC(=O)[C@H]2C1 [Compound A7, (R)-2-(3,3-Dimethylbutyryl)-7-(2-fluorophenyl)-1,3,4,11a-tetrahydro-2H,10H-2,4a,10-triaza-dibenzo[a,d]cycloheptene-5,11-dione] |
| 67 | – | O=C1Nc2ccc(-c3cccs3)cc2C(=O)N2CCN(C(=O)CO)C[C@H]12 [Compound A8, (R)-2-(2-Hydroxyacetyl)-7-thiophen-2-yl-1,3,4,11a-tetrahydro-2H,10H-2,4a,10-triazadibenzo[a,d]-cycloheptene-5,11-dione] |
| 84 | – | CN(C)c1ccc(C(=O)N2CCN3C(=O)c4cc(-c5ccc(Cl)cc5)ccc4NC(=O)[C@H]3C2)cc1 [Compound A9, (R)-7-(4-Chlorophenyl)-2-(4-dimethylamino-benzoyl)-1,3,4,11a-tetrahydro-2H,10H-2,4a,10-triazadibenzo[a,d]cycloheptene-5,11-dione] |
| 34 | > 1000 | O=C1Nc2ccc(-c3ccccc3F)cc2C(=O)N2CCN(C(=O)[C@@H]3CSCN3)C[C@H]12 [Compound A10, (R)-7-(2-Fluorophenyl)-2-((R)-thiazolidine-4-carbonyl)-1,3,4,11a-tetrahydro-2H,10H-2,4a,10-triazadibenzo[a,d]cycloheptene-5,11-dione] |
| 69 | – | COc1ccc(-c2ccc3c(c2)C(=O)N2CCN(C(=O)c4cccc(F)c4)C[C@@H]2C(=O)N3)cc1 [Compound A11, (R)-2-(3-Fluorobenzoyl)-7-(4-methoxyphenyl)-1,3,4,11a-tetrahydro-2H,10H-2,4a,10-triaza-dibenzo[a,d]cycloheptene-5,11-dione] |
| – | > 1000 | O=C1Nc2ccc(-c3ccccc3F)cc2C(=O)N2CCN(C(=O)[C@@H]3CSCN3)CC12 (stereo partly drawn) [Compound A12, 7-(2-Fluorophenyl)-2-((R)-thiazolidine-4-carbonyl)-1,3,4,11a-tetrahydro-2H,10H-2,4a,10-triaza-dibenzo[a,d]cycloheptene-5,11-dione] |
| – | > 1000 | CC(C)(C)CC(=O)N1CCN2C(=O)c3cc(-c4ccccc4F)ccc3NC(=O)C2C1 (stereo not drawn) [Compound A13, 2-(3,3-Dimethylbutyryl)-7-(2-fluorophenyl)-1,3,4,11a-tetrahydro-2H,10H-2,4a,10-triaza-dibenzo[a,d]cycloheptene-5,11-dione] |
| 38 | > 1000 | O=C1Nc2ccc(-c3ccccc3F)cc2C(=O)N2CCN(C(=O)c3ccc4[nH]nnc4c3)CC12 (stereo not drawn) [Compound A14, 2-(1H-Benzotriazole-5-carbonyl)-7-(2-fluorophenyl)-1,3,4,11a-tetrahydro-2H,10H-2,4a,10-triaza-dibenzo[a,d]cycloheptene-5,11-dione] |
| 55 | > 1000 | O=C1Nc2ccc(-c3ccccc3F)cc2C(=O)N2CCN(C(=O)c3ccccn3)CC12 (stereo not drawn) [Compound A15, 7-(2-Fluorophenyl)-2-(pyridine-2-carbonyl)-1,3,4,11a-tetrahydro-2H,10H-2,4a,10-triaza-dibenzo[a,d]cycloheptene-5,11-dione] |
| 18 | > 1000 | O=C1Nc2ccc(-c3ccccc3F)cc2C(=O)N2CCN(C(=O)[C@@H]3CSCN3)C[C@@H]12 [Compound A16, (S)-7-(2-Fluorophenyl)-2-((R)-thiazolidine-4-carbonyl)-1,3,4,11a-tetrahydro-2H,10H-2,4a,10-triazadibenzo[a,d]cycloheptene-5,11-dione] |
| – | 100 to 1000 | CC(C)(C)CC(=O)N1CCN2C(=O)c3cc(-c4ccccc4F)ccc3NC(=O)[C@@H]2C1 [Compound A17, (S)-2-(3,3-Dimethylbutyryl)-7-(2-fluorophenyl)-1,3,4,11a-tetrahydro-2H,10H-2,4a,10-triaza-dibenzo[a,d]cycloheptene-5,11-dione] |

The next lines start with the compound.

| SMILES | remaining activity at 10 µM [%] | IC50 [nM] |
| --- | --- | --- |
| CC(C)(C)CC(=O)N1CCN2C(=O)c3cc(-c4ccc(Cl)cc4F)ccc3NC(=O)C2C1 (stereo not drawn) [Compound 10, 7-(4-chloro-2-fluorophenyl)-2-(3,3-dimethylbutyryl)-1,3,4,11a-tetrahydro-2H,10H-2,4a,10-triazadibenzo[a,d]cycloheptene-5,11-dione] | 1 | 100 to 1000 |
| CC(C)(C)CC(=O)N1CCN2Cc3cc(-c4ccccc4F)ccc3NCC2C1 (stereo not drawn) [Compound 25, 1-[7-(2-fluorophenyl)-3,4,5,10,11,11a-hexahydro-1H-2,4-a,10-triazadibenzo[a,d]cyclohepten-2-yl]-3,3-dimethylbutan-1-one] | 53 | > 1000 |
| CC(C)(C)CC(=O)N1CCN2Cc3cc(-c4ccccc4F)ccc3NC(=O)C2C1 (stereo not drawn) [Compound 26, 2-(3,3-dimethylbutyryl)-7-(2-fluorophenyl)-1,3,4,5,10,11a-hexahydro-2H-2,4-a,10-triazadibenzo[a,d]cyclohepten-11-one] | 73 | > 1000 |
| O=C1Nc2ccc(-c3ccc(Cl)cc3)cc2C(=O)N2CCN(C(=O)OCc3ccccc3)CC12 (stereo not drawn) [Compound 40, Benzyl 7-(4-chlorophenyl)-5,11-dioxo-3,4,5,10,11,11a-hexahydro-1H-2,4a,10-triazadibenzo[a,d]cycloheptene-2-carboxylate] | 22 | > 1000 |
| O=C1Nc2ccc(-c3ccc(Cl)cc3F)cc2C(=O)N2CCN(C(=O)n3ccnc3)C[C@H]12 [Compound 41, (R)-7-(4-Chloro-2-fluorophenyl)-2-(imidazole-1-carbonyl)-1,3,4,11a-tetrahydro-2H,10H-2,4a,10-triazadibenzo[a,d]cycloheptene-5,11-dione] | 48 | > 1000 |
| CC(C)(C)[C@H](NC1CCNCC1)C(=O)N1CCN[C@@H](C(=O)Nc2ccc(-c3ccc(Cl)cc3F)cc2C(=O)O)C1 [Compound 47, 4′-chloro-4-({(R)-4-[(S)-3,3-dimethyl-2-(piperidin-4-ylamino)-butyryl]piperazine-2-carbonyl}amino)-2′-fluorobiphenyl-3-carboxylic acid] | 8 | 100 to 1000 |
| CC(C)(C)[C@H](NC1CCNCC1)C(=O)N1CCN2C(=O)c3cc(-c4ccc(Cl)cc4F)ccc3NC(=O)[C@H]2C1 [Compound 48, (R)-7-(4-Chloro-2-fluorophenyl)-2-[(S)-3,3-dimethyl-2-(piperidin-4-ylamino)butyryl]-1,3,4,11a-tetrahydro-2H,10H-2,4a,10-triazadibenzo[a,d]cycloheptene-5,11-dione] | 2 | 100 to 1000 |
| CC(C)(C)[C@H](O)C(=O)N1CCN2Cc3cc(-c4ccc(Cl)cc4)ccc3NC(=O)C2C1 (stereo partly drawn) [Compound 57, 7-(4-Chlorophenyl)-2-((S)-2-hydroxy-3,3-dimethylbutyryl)-1,3,4,5,10,11a-hexahydro-1H-2,4a,10-triazadibenzo[a,d]cyclohepten-11-one] | 40 | > 1000 |

Reference: patent publication US20120115852A1, “HETEROCYCLIC COMPOUNDS AS AUTOTAXIN INHIBITORS” (Merck Patent Gesellschaft Mit Beschrankter Haftung, priority 2009, published 2012)
